From patent EP0335331A1, “O- (1,2-Di-O-acetyl-glycero-3-phosphoryl)ethanolamine, a process for its preparation and its therapeutic use” (MAGIS FARMACEUTICI S.p.A., priority 1988, dated 1989)

Legend:
[1] = acute toxicity by the Weil method; conditions: in vivo, mouse, read-out: LD₅₀
Text: The acute toxicity of the compound of formula (I) was studied on the mouse by the Weil method [Weil C.S. Biometr. 8, 249 (1952)].

[2] = test system: rat; test: olive oil-induced alteration of lipoprotein state, plasma cholesterol and triglycerides; assay type: in vivo; conditions: normally fed rat treated orally with 15 ml/kg of olive oil; greatest effect two hours after the olive oil treatment
Procedure: The effect of the compound in terms of modifying the lipoprotein state and the plasma cholesterol and triglyceride levels, altered by oral administration of olive oil, was studied in normally fed rat treated orally with 15 ml/kg of olive oil at various concentrations.

## CC(=O)OCC(COP(=O)(O)OCCN)OC(C)=O (centres unmarked) [compound of formula (I), O-(1,2-di-O-acetylglycero-3-phosphoryl)ethanolamine]
[1]
  LD50: > 2000 mg/kg
[2]
  effect on increase in triglycerides and cholesterol, reduction in the α-lipoproteins and increase in the β and pre-β fractions: well antagonised by the compound, which proved able to return the parameters to normality
